From EP2924037A1, “QUINAZOLINE DERIVATE AND USE THEREOF AS APOPTOSIS INHIBITOR” (Linx Pharmaceutical Co., Ltd., priority 2012, dated 2013)

Assays:
HS>rpr Drosophila = experiment: Compound screen in the apoptotic HS>rpr Drosophila model; format: in vivo; details: heat shock at 37 °C; 25 compounds screened
Procedure: HS-Gal4 (a promoter that can be expressed in whole body and activated by heat), can promote expression of any genes having repeated UAS (upstream activating sequence) at the 5' region. The HS-Gal4 and UAS-Reaper Drosophila were crossed at 18 °C to produce hybrids referred to as HS> rpr, and the female offspring underwent normal development. However, with heat shock for 2-3 hours at 37 °C, about 50-70% of the offspring died after 14-24 h (Fig. 1). 25 compounds were selected (Fig. 2) to determine their impact on the lethal rate of HS> rpr.
UAS-rpr and HS-Gal4 flies were obtained from Bloomington Stock Center in the US. The F1 progenies (HS>rpr) from the cross of these two lines were raised at 18 °C for the compound screen. Compounds were dissolved in 5% sucrose at the concentrations used in the culture media for Cmap. The compound solution (150 µL) was added to a vial containing three layers of filter papers. Twenty adult HS>rpr flies aged 1-3 days were then placed into each vial for 24 hours. The flies were heat shocked at 37 °C for 2 hrs. The survival rate was calculated 12 hrs after the heat shock.

[1] = test system: RAW264.7 macrophage cells; experiment: LPS and IFNγ induced apoptosis, Annexin V staining; format: cell-based; details: Mus musculus, LPS (2 µg/ml) and IFNγ (50 U/ml), read-out: reduction of apoptosis
Procedure: Cells were stained with Annexin V to examine apoptosis (Fig. 4). […] Terazosin (4 µg/ml) can reduced 50% of apoptosis (Fig. 4).
The RAW 264.7 cells were cultured in the DMEM medium (Gibco) supplemented with 10% FBS (Gibco), streptomycin (0.1 g/L) and penicillin (0.06 g/L) (Amresco). To induce apoptosis, RAW 264.7 cells at 90% confluence were incubated in DMEM (10% FBS) containing 2 µg/mL lipopolysaccharide (LPS; Escherichia coli O111:B4, Sigma) for 24 hours.
(§1) RAW 264.7 cells were cultured in the DMEM medium (Gibco) supplemented with 5% FBS, streptomycin (0.1 mg/mL) and penicillin (0.06 mg/mL). To induce apoptosis, 2 µg/mL lipopolysaccharide (LPS; Escherichia coli O111:B4, Sigma-Aldrich) and IFN-γ (50 U/mL, Peprotech) were added, and a predetermined concentration of the testing compound was added at the same time. Cell death was assessed by Western blot with an anti-active Caspase 3 antibody (#9661, Cell Signaling). β-Actin (Boster) was used as internal control for protein loading. The ratio of Caspase 3/β-Actinwas was used to assess apoptosis.

[2] = test system: E. coli induced sepsis model; experiment: E. coli induced sepsis model in mice; format: in vivo, BALB/C mice; details: 0.4 mg/kg, 1.5 hours following injection of E. coli
Procedure: Terazosin was tested in a model of septicemia caused by E. coli injected. […] To determine the potential antibacterial effect, the growth of E. coli was examined in the presence of terazosin.

E. Coli O111:B4 = experiment: Oxford Cup test of antibiotic activity; format: cell-based; details: after 24 hrs; terazosin 0.2µg, 2µg, 200µg, 2mg; ampicillin 2mg
Procedure: The antibiotic activity of terazosin was measured by Oxford Cup test. Oxford Cups containing different concentrations of terazosin were placed in the petri dish wherein E. Coli O111:B4 was cultured on LB medium. The effects of terazosin and ampicillin on the growth of E. Coli were examined after 24 hrs.

CLP model of sepsis = format: in vivo, BALB/C mice
Procedure: (§2) Because E. coli and LPS models can only simulate Gram-negative bacteria infections, terazosin was further tested in a cecal ligation and puncture (CLP) model, which is believed to be the classic standard model of experimental septicemia (Parker and Watkins, 2001; Wichterman et al., 1980). First, 0.4 mg/kg of terazosin (same concentration as used in the LPS model) was tested. […] This may be due to severe cardiac dysfunction and hypotension induced by CLP. Thus, the blood pressure lowering function of the drug may have masked its anti-apoptotic effect. […] In addition, the combination of terazosin and antibiotics was tested. Terazosin was combined with amoxicillin and clavulanate potassium (Co-Am, amoxicillin and clavulanate potassium in a weight ratio of 4: 1, by way of a specific example elsewhere or instance mentioned in the present invention, also means a 4 : 1 ratio. Skilled in the art can understand, when a combination of amoxicillin and clavulanate potassium is referred to, the weight ratio of amoxicillin and clavulanate potassium can be from 1:1 to 10:1, especially 1:1-7:1, for example, about 1:1, about 4:1, about 7:1).
For the CLP model of sepsis, mice were anesthetized with chloral hydrate (300 mg/kg, i.p.). Then, a 1.5-2.0 cm long abdominal midline incision was made and the cecum was exposed. […]

[3] = Blood pressure of injected mice; format: in vivo; details: 0.08 mg/kg
Procedure: as §2

[4] = test system: active form of caspase-3 in Raw 264.7 cells; experiment: Western blot of the active form of caspase-3 in cells treated with LPS and IFNγ; format: cell-based
Procedure: CLP was done one week after the injection.
For Western blot, an anti-active Caspase 3 antibody (#9664, Cell Signaling) was used. The anti-actin antibody was purchased from Wuhan Boster company, China.
as §1

[5] = Effect on serum glucose in mice; format: in vivo; details: Mus musculus, ip, 18 h, read-out: reduction of the serum glucose level
Procedure: Mice were injected terazosin (0.4 mg/kg i.p.) once. The serum glucose level of the mice was measured 18 hours later. […] By the same method, exemplary compounds Co.1, Co.3, Co.7, Co.9, Co.13, Co.16, Co.19, Co.24, Co.27 and Co.32 as described in the present invention were all shown to be effective to reduce the serum glucose level by 20% to 50%.

[6] = test system: sepsis models (LPS; Cecal Ligation and Puncture); experiment: Effects against sepsis (LPS and CLP models), 7-day survival; format: in vivo, BALB/C mice; details: i.p. once a day for 3 days at 0.4 mg/kg; 7-day period; P < 0.05 compared to negative controls
Procedure: After 1.5 hours, compounds were injected (i.p.) at a predetermined concentration. Mouse survival was examined every 12 hours for 7 days. Statistical significance of the difference in the survival rates was analyzed.
Another model is Cecal Ligation and Puncture (CLP) model of sepsis. Mice were anesthetized. A 1.5-2.0 cm long abdominal midline incision was made and the cecum was exposed. After ligation 5 mm from the cecal tip, the cecum was punctured once with a 22-gauge needle, and some stool was squeezed out. Then the cecum was put back into the abdomen and the abdomen was closed by running suture. After 1.5 hours, compounds were injected (i.p.) at a predetermined concentration. Mouse survival was examined every 12 hours for 7 days. Statistical significance of the difference in the survival rates was analyzed.
These compounds were individually injected (i.p.) once a day for 3 days at 0.4 mg/kg.

Procedure for LPS-induced sepsis model: Male BALB/C mice (20±3g) from Vital River (Beijing, China) were housed in the Animal Center of Peking University. […] For the LPS model of sepsis, each mouse was injected with LPS (13.5 mg/kg, i.p.) once. […] Terazosin (0.4 mg/kg or 0.04 mg/kg) or saline was then injected (i.p.) 1.5 hours after LPS infusion. Lethality was recorded every 12 hours for 7 days.
24 hrs after LPS injection, one thymus from each mouse was collected. Then, the genomic DNA of thymus was extracted with a genomic DNA purification kit (Biofuture, Beijing, China). DNA fragmentation was assessed on a DNA agarose gel.

COc1cc2nc(N3CCN(C(=O)C4CCCO4)CC3)nc(N)c2cc1OC (stereo not drawn) [Co.33, (4-(4-amino-6,7-dimethoxyquinazolin-2-yl)piperazin-1-yl)(tetrahydrofuran-2-yl)methanone]
survival rate of HS>rpr Drosophila (HS>rpr Drosophila): significantly improve the survival rate | inhibition at 4 µg/mL [1]: 50% | protection from E. coli-induced death [2]: can protect mice from E. coli-induced death | growth of E. coli (inhibition zones) (E. Coli O111:B4): cannot inhibit the growth of E. coli | survival of mice in the CLP model (CLP model of sepsis; 0.08 mg/kg, injected at 1.5 hours and 24 hours after surgery): significantly promoted the survival of mice | death of mice in the CLP model versus control (CLP model of sepsis; mouse, in vivo): died faster than the control group | blood pressure of the injected mice [3]: completely normal | active form of caspase-3 [4]: decreased | inhibition in vivo at 0.4 mg/kg [5]: 30% | survival against sepsis [6]: significantly increased survival against sepsis | effect in later phases of septicemia (survival) (LPS-induced sepsis model; injected at 12 hours after LPS treatment (0.04 mg/kg per Fig. 6)): satisfactory results | DNA ladders in genomic DNA of the thymus (LPS-induced sepsis model; mice treated with LPS and terazosin vs LPS, 24 hrs after LPS injection): significantly reduced
